In publication PMC7230232, “Secondary Metabolites from the Culture of the Marine-derived Fungus Paradendryphiella salina PC 362H and Evaluation of the Anticancer Activity of Its Metabolite Hyalodendrin” (Marine Drugs, 2020):
Where “and” joins values, the source holds several entries; their conditions need not be identical. Equal values may be shown once. Read-outs that look alike come from different tables or passages of the source.

Experiments:
MCF7-Sh-WISP2 cells [1] = test: MTT cell viability assay, MCF7-Sh-WISP2; type: cell-based, human; details: for IC50: Homo sapiens
Description: (§1) Cellular viability was determined by the MTT (methylthiazolyldiphenyl-tetrazolium bromide) assay. Briefly, cells were exposed to the indicated concentrations of crude extracts or compounds 1–4 for five doubling times and then incubated for 3 h at 37 °C with MTT. Formazan crystals were then dissolved in DMSO and optical density measured at 570 nm in a microplate reader. The half-maximal inhibitory concentration (IC50) was determined. Values given for crude extracts are averages of at least two experiments done in duplicate. IC50 values calculated for the four isolated compounds and the commercially available 4-hydroxy-tamoxifen (Sigma-Aldrich) are averages of at least three experiments done in duplicate.

MDA-MB-231 = test: MTT cell viability assay, MDA-MB-231; type: cell-based; details: Homo sapiens, breast, mesenchymal, invasive
Description: as §1

SW48 = test: MTT cell viability assay, SW48; type: cell-based; details: Homo sapiens, colon
Description: as §1

DLD1 = test: MTT cell viability assay, DLD1; type: cell-based; details: Homo sapiens, DLD-1; colon
Description: as §1

HT29 = test: MTT cell viability assay, HT29; type: cell-based; details: Homo sapiens, HT-29; colon
Description: as §1

HT29 5FU = test: MTT cell viability assay, HT29 5FU; type: cell-based; details: Homo sapiens, HT-29; colon; 5-fluorouracil resistant
Description: as §1

HT29 oxa = test: MTT cell viability assay, HT29 oxa; type: cell-based; details: Homo sapiens, HT-29; colon; oxaliplatin resistant
Description: as §1

HT29 SN-38 = test: MTT cell viability assay, HT29 SN-38; type: cell-based; details: Homo sapiens, HT-29; colon; SN-38 resistant
Description: as §1

HCT116 5FU = test: MTT cell viability assay, HCT116 5FU; type: cell-based; details: Homo sapiens, HCT-116; colon; 5-fluorouracil resistant
Description: as §1

HCT116 SN-38 = test: MTT cell viability assay, HCT116 SN-38; type: cell-based; details: Homo sapiens, HCT-116; colon; SN-38 resistant
Description: as §1

LS513 = test: MTT cell viability assay, LS513; type: cell-based; details: Homo sapiens, LS-513; colon
Description: as §1

LOVO = test: MTT cell viability assay, LOVO; type: cell-based; details: Homo sapiens, colon
Description: as §1

LS174T = test: MTT cell viability assay, LS174T; type: cell-based; details: Homo sapiens, colon
Description: as §1

SW480 = test: MTT cell viability assay, SW480; type: cell-based; details: Homo sapiens, colon
Description: as §1

HeLa = test: MTT cell viability assay, HeLa; type: cell-based; details: Homo sapiens, cervix
Description: as §1

C19 = test: MTT cell viability assay, C19 immortalized fibroblasts; type: cell-based; details: Homo sapiens, Fibroblast; normal; fibroblastic
Description: as §1

[2] = biological target: T1, thioredoxin system (Trr1+Trx1) (Saccharomyces cerevisiae, UniProt P22217); test: In vitro reduction by the reconstituted thioredoxin system (NADPH consumption); type: biochemical; details: versus ACN control
T1 construct: made in house
Description: Thioredoxin 1 (Trx1) and NADPH-dependent thioredoxin reductase (Trr1) from Saccharomyces cerevisiae were cloned and produced as described previously. Thioredoxin activity was measured spectrophotometrically (Uvikon XS; Secomam) in 1 mL cuvette by following NADPH consumption at 340 nm over 2 min. The reaction was performed in 100 µM NADPH, 246 nM of Trr1 in 30 mM Tris-HCl buffer (pH 7.9) and in the presence or not of 65 nM of Trx1. The reaction was initiated by adding 10 µL of 50 mM of 3 in acetonitrile or 10 µL of acetonitrile (ACN, Control experiment). For each condition, NADPH consumption experiments were performed in triplicate and results were represented as the mean ± SD. The significance of the results was evaluated by Student’s t-test.

MCF7-Sh-WISP2 cells [3] = test: Intracellular signaling array and immunoblotting; type: cell-based, human
Description: MCF7-Sh-WISP2 cells were treated for 48 h with 2.8 µM of 3 (corresponding to 3.8 × 10^−5 nmol of drug per cell), harvested and lysed on ice for 5 min with 0.5 mL of cell lysis buffer containing a cocktail of protease inhibitors. The lysates were centrifuged at 14,000 g for 1 min at 4 °C. Intracellular signaling molecules were detected using a PathScan® intracellular signaling array kit (# 7323, Cell Signaling Technology) according to the manufacturer’s procedure. The chemiluminescent images of the slide were captured with the Chemidoc system (Biorad).
(§2) MCF7-Sh-WISP2 cells were incubated for 72 h at 37 °C with 2.4 µM of 3 (corresponding to 3.8 × 10^−5 nmol of drug per cell). Cells were then washed twice with Phosphate-Buffer Saline (PBS) 1X and lysed for 30 min in RIPA buffer (150 mM NaCl, 1.0% IGEPAL® CA-630, 0.5% sodium deoxycholate, 0.1% SDS, 50 mM Tris, pH 8.0). Proteins (20 µg) were resolved on sodium dodecyl sulfate polyacrylamide gel (SDS/PAGE) (12%) and blotted onto nitrocellulose membranes (Bio-Rad). […] Antigens were detected using an enhanced chemiluminescence kit (Biorad) using the Chemidoc system (Biorad). Protein quantitation was calculated using Image Lab software developed by Bio-Rad.

MCF7-Sh-WISP2 cells [4] = test: Human cell stress array and immunoblotting; type: cell-based
Description: MCF7-Sh-WISP2 cells were treated for 48 h with 5.7 µM of 3 (corresponding to 3.8 × 10^−5 nmol of drug per cell), harvested and lysed for 30 min on ice with 0.4 mL of cell lysis buffer containing a cocktail of protease inhibitors. The lysates were centrifuged at 14,000 g for 5 min at 4 °C. Human cell stress proteins were detected using the Proteome Profiler human cell stress array kit (# ARY018, R&D systems) according to the manufacturer’s instructions. The chemiluminescent images of the slide were captured with the Chemidoc system (Biorad).
as §2

MCF7-Sh-WISP2 cells [5] = test: Cell cycle progression by propidium iodide flow cytometry; type: cell-based, human; details: 380 nM
Description: Figure S5. Cell cycle progression of MCF7-Sh-WISP2 cells in response to compound 3 exposure.
After treatment with 380 nM of 3 (hyalodendrin) (corresponding to 1.9 10-5 nmol of drug per cell), cells were collected, counted and fixed with 70 % ethanol. Cells were then stained with 40 μg/mL propidium iodide (PI) (Biolegend) containing RNaseA (100 µg/mL), prior analysis on a Gallios flow cytometer (Beckman Coulter, Inc, Villepinte, France). The results were analyzed using the Venturi One V6 software (Applied Cytometry).
(1 picture or pasted object on this page, not shown here)

T1 sequence (P22217 whole entry): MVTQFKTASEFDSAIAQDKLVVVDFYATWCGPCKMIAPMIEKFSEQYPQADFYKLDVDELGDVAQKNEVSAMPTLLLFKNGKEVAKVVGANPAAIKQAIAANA

CN1C(=O)[C@@]2(Cc3ccccc3)SS[C@]1(CO)C(=O)N2C [Compound 3, (3R, 6R) Hyalodendrin]
IC50 (MCF7-Sh-WISP2 cells [1]; read-out: IC50 MC7-Sh-WISP2): 142 ± 3 nM | IC50 (MCF7-Sh-WISP2 cells [1]; read-out: IC50 MCF7-Sh-WISP2): 0.046 µg/mL and 140 nM | IC50 for MCF7-Sh-WISP2 expressed as amount of 3 per cell (MCF7-Sh-WISP2 cells [1]; corresponds to IC50 of 140 nM in the viability assay): 3.8 × 10^−5 nmol of 3 per cell | IC50 (MDA-MB-231): 132 ± 13.4 nM | IC50 (SW48): 149 ± 15.5 nM | IC50 (DLD1): 40 ± 5.8 nM | IC50 (HT29): 58 ± 13.7 nM | IC50 (HT29 5FU): 147 ± 10.2 nM | IC50 (HT29 oxa): 142 ± 2.6 nM | IC50 (HT29 SN-38): 93.8 ± 13.6 nM | IC50 (HCT116 5FU): 72 ± 10.9 nM | IC50 (HCT116 SN-38): 43.8 ± 4.2 nM | IC50 (LS513): 78 ± 9.3 nM | IC50 (LOVO): 73.4 ± 16.4 nM | IC50 (LS174T): 158 ± 13 nM | IC50 (SW480): 164 ± 11 nM | IC50 (HeLa): 69 ± 9.9 nM | IC50 (C19): 252 ± 20.5 nM | NADPH consumption increase [2]: ~14 folds | phosphorylation of p53 on serine 15 (MCF7-Sh-WISP2 cells [3]; 2.8 µM for 48 h (array), 2.4 µM for 72 h (Western blot)): increased phosphorylation | PRAS40 protein expression levels (MCF7-Sh-WISP2 cells [3]; Western blot, 2.4 µM for 72 h): general decrease | cleavage of PARP or caspase-3 (MCF7-Sh-WISP2 cells [3]; signaling array): no cleavage | phosphorylation of p53 on serine 46 (MCF7-Sh-WISP2 cells [4]; 5.7 µM for 48 h (array), 2.4 µM for 72 h (Western blot)): decreased phosphorylation | BAX expression (MCF7-Sh-WISP2 cells [4]; Western blot, 2.4 µM for 72 h): decreased expression | expression levels of HSP60 and HSP70 proteins (MCF7-Sh-WISP2 cells [4]; array, 5.7 µM for 48 h): marked decrease | p21 protein expression levels (MCF7-Sh-WISP2 cells [4]; array, 5.7 µM for 48 h): no increase | cell cycle progression (MCF7-Sh-WISP2 cells [5]): no significant changes
